Assay results reported in patent US8541670B2, “Compositions and methods for inhibiting tumor cell growth” (priority 2007, dated 2013).
Where no end group is shown, it is not given here.

Experiments:
AKT = test: Western blot of AKT substrate phosphorylation in N2a cells; type: cell-based; conditions: different doses
Experimental: AKT affects a network that positively regulates G1/S cell cycle progression through several mechanisms that involve the expression and subcellular localization of the CDK inhibitor p27^Kip1 (Blain and Massague (2002) Nat. Med. 8:1076-1078; Liang, et al. (2002) supra; Shin, et al. (2002) supra; Viglietto, et al. (2002) supra). Based on these studies, the effect of ZaTa peptide on cell proliferation was assessed. […] Capturing live images of cultured N2a cells in the presence of different concentrations of the ZaTa peptide confirmed an obvious reduction in the number of dividing cells.
N2a cells were cultured in Dulbecco's Modified Eagle's Medium (DMEM) and OPTI-MEM® media (50% of each; GIBCO-BRL, Gaithersberg, Md.) supplemented with 5% fetal bovine serum (FBS; SIGMA, St. Louis, Mo.), penicillin-streptomycin and L-Glutamine (GIBCO-BRL). […] Protein concentration was measured using a commercially available protein assay (BIO-RAD, […].) protein assay and spectrometry at 595 Å. […] The membrane was probed with primary and secondary antibodies and signals were detected by chemiluminescence followed by autoradiography.

p70S6K = biological target: T1, p70S6K (Homo sapiens, UniProt P23443); test: In vitro kinase assay p70S6K; type: biochemical; conditions: ten times higher concentration than 0.1 μM
T1 construct: endogenous in cells
Experimental: As a specific substrate, the phosphorylation level of GSK-3[…] at Ser-9 was also evaluated. […] The decrease was specific to the AKT phosphorylation site on GSK-3[…] at Ser-9, since a change in the phosphorylation level of GSK-3[…] at Tyr-216 or GSK-3[…] at Tyr-279 was not observed. Moreover, the in vivo reduction of the phosphorylation of AKT substrates was more obvious at the injection site, since a significant change in the phosphorylation of AKT substrates in the frontal cortex or cerebellum between the two hemispheres was not observed. […] To test the specificity/selectivity of ZaTa as the inhibitor of AKT1 versus the other major kinases, a series of in vitro kinase assays was performed at IC50 for AKT1 and at ten times higher concentrations. A panel of the following 32 kinases was first tested in vitro using the active form of each kinase and a specific substrate: AKT2, AKT3, PKA, PKC[…], PKC, PI3K[…], PI3K[…], PI3K, SGK, PAK2, PAK3, SAPK2/p38, Abl, CaMKII, CDK1/cyclinB, CDK5/p35, CK1, CK2, CSK, GSK3[…], GSK3[…], JNK1[…]1, MAPK1, p70S6K, PDGFR[…], PDGFR[…], PDK1, PKG1[…], TrkB, JAK2, JAK3, and Syk. […] However, at ten times higher concentration, ZaTa inhibited AKT2 (63%), PI3K[…] (72%), p70S6K (64%), SGK (73%), PAK3 (83%), JAK3 (79%), TrkB (84%), and Abl (42%). […]

AKT-PKAc complex = AKT-PKAc complex (Mus musculus, UniProt P31750); test: Co-immunoprecipitation of AKT-PKAc complex in N2a cells; type: cell-based; design: Neuroblastoma 2a (N2a) neurons expressing an endogenous level of AKT and PKAc; endogenous in cells; host or cells: N2a neuroblastoma cells; conditions: 24-hour treatment
Experimental: Accordingly, the stability and phenotypic consequences of the AKT-PKAc complex was also analyzed in cultured neurons. N2a cells were treated with vehicle, ZaTa or control peptide for 24 hours. Media was removed after the 24-hour treatment and an equal number of cells from each treatment group was either cultured for another 24 hours without treatment, or lysed and subjected to immunoprecipitation with an antibody against AKT. Those cells cultured for another 24 hours were also harvested and subjected to immunoprecipitation. In parallel, the number of individual neurons with neurites was counted. […] Live images of N2a neurons were captured following treatment with vehicle or ZaTa (2 or 5 μM). […] ZaTa-mediated changes included a progressive loss of neurites, inhibition of new neurite formation, loss of cell motility, as well as formation of large cell colonies.

Sequence of AKT-PKAc complex (P31750 whole entry, one chain of several): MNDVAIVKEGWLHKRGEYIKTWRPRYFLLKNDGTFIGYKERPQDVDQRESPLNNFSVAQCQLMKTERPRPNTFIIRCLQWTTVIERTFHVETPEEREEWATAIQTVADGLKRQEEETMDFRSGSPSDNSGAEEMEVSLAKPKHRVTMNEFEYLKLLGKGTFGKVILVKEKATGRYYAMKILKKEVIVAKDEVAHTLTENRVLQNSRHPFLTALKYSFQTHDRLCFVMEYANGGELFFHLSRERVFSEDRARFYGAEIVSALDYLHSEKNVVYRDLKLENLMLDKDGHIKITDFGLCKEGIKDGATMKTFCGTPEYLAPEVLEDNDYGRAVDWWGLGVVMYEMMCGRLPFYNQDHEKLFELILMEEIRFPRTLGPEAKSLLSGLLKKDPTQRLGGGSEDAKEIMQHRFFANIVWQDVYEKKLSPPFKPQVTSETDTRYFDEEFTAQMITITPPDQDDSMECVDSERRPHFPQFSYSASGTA
T1 sequence (P23443 whole entry): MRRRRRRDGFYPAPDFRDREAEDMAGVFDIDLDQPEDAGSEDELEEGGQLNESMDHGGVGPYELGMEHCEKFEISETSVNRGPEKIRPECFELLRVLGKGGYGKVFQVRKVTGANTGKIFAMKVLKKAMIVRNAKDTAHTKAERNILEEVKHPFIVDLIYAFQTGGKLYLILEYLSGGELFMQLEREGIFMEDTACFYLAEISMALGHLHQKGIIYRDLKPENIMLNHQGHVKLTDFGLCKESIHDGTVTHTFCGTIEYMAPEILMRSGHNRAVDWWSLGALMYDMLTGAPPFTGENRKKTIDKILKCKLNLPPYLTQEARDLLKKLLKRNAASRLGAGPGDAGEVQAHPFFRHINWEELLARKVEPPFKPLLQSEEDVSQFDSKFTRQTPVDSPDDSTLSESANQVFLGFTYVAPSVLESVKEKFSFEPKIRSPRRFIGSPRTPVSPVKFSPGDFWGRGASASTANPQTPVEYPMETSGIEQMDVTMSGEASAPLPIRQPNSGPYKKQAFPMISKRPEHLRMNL

AKRVKGRTWTLCGTPEY [ZaTa]
phosphorylation level of AKT substrates in N2a cells (AKT): concomitant decrease
inhibition of p70S6K (p70S6K): 64%
amount of PKAc in physical contact with AKT, N2a cells (AKT-PKAc complex): reduced the amount of PKAc in physical contact with AKT
